Reference: ChEMBL document CHEMBL1135887, “Substituted pentacyclic carbazolones as novel muscarinic allosteric agents: synthesis and structure-affinity and cooperativity relationships” (J Med Chem, 2002)

Assays:
[1] = biological target: Muscarinic acetylcholine receptor M3 (Homo sapiens) (UniProt P20309); assay: Subtype selectivity and the cooperativity with N-methyl Scopolamine (NMS) at Muscarinic acetylcholine receptor M3; […]
[2] = biological target: Muscarinic acetylcholine receptor M3 (Homo sapiens) (UniProt P20309); assay: Logarithm of affinity (log 1/M) at the muscarinic acetylcholine receptor M3 by using semiquantitative equilibrium and off-rate assay
[3] = biological target: T1, Muscarinic acetylcholine receptor M1 (Homo sapiens) (UniProt P11229); assay: Subtype selectivity and the cooperativity with N-methyl Scopolamine (NMS) at Muscarinic acetylcholine receptor M1; Activity range is 1.81-1.19
T1 sequence (whole entry): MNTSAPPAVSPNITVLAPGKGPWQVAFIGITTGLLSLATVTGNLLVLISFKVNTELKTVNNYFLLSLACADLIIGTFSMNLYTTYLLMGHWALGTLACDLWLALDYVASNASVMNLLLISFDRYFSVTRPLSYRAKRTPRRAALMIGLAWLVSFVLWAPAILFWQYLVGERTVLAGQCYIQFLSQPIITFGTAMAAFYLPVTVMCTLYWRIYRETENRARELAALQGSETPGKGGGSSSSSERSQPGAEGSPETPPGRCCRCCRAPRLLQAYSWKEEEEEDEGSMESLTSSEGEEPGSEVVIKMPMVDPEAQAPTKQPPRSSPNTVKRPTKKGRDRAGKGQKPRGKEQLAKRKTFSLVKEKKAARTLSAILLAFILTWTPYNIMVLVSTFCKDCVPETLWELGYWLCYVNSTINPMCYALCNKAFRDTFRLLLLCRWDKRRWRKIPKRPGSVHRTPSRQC

[4] = biological target: T2, Muscarinic acetylcholine receptor M2 (Homo sapiens) (UniProt P08172); assay: Logarithm of affinity (log 1/M) at the (N-methyl Scopolamine) NMS-liganded muscarinic acetylcholine receptor M2 by using semiquantitative equilibrium and off-rate assay
T2 sequence (whole entry): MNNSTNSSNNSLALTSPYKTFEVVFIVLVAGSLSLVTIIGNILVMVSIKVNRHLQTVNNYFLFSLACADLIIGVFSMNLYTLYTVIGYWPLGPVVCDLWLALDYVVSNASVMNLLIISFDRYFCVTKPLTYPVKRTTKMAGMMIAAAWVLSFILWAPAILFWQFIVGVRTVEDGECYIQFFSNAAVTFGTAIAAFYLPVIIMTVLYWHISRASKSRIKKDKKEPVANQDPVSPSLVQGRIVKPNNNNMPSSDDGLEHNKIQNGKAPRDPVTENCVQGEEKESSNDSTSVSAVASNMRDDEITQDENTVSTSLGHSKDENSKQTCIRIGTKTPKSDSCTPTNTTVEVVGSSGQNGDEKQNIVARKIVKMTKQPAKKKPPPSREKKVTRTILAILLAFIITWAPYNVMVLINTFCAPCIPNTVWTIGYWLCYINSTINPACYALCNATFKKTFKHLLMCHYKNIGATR

[5] = biological target: T3, Muscarinic acetylcholine receptor M4 (Homo sapiens) (UniProt P08173); assay: Subtype selectivity and cooperativity with N-methyl Scopolamine (NMS) at Muscarinic acetylcholine receptor M4; Activity range is 1.2-3
T3 sequence (whole entry): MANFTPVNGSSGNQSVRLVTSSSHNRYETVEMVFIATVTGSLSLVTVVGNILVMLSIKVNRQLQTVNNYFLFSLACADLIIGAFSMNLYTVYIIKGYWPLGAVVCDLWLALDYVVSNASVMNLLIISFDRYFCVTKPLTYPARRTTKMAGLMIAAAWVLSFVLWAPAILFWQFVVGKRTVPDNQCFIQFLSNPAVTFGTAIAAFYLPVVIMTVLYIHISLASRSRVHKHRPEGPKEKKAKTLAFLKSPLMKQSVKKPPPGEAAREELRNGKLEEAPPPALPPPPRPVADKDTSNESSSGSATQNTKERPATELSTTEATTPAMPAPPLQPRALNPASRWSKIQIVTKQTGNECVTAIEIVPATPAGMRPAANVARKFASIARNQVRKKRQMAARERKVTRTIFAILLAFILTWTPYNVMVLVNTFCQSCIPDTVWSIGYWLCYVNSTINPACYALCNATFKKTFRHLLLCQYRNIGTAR

[6] = biological target: Muscarinic acetylcholine receptor M3 (Homo sapiens) (UniProt P20309); assay: Logarithm of affinity (log 1/M) at the (N-methyl Scopolamine) NMS-liganded muscarinic acetylcholine receptor M3 by using semiquantitative equilibrium and off-rate assay
[7] = biological target: T3, Muscarinic acetylcholine receptor M4 (Homo sapiens); assay: Logarithm of affinity (log 1/M) at the (N-methyl Scopolamine) NMS-liganded muscarinic acetylcholine receptor M4 by using semiquantitative equilibrium and off-rate assay
[8] = biological target: T1, Muscarinic acetylcholine receptor M1 (Homo sapiens); assay: Logarithm of affinity (log 1/M) at the (N-methyl Scopolamine) NMS-liganded muscarinic acetylcholine receptor M1 by using semiquantitative equilibrium and off-rate assay
[9] = biological target: T1, Muscarinic acetylcholine receptor M1 (Homo sapiens); assay: Logarithm of affinity (log 1/M) at the free muscarinic acetylcholine receptor M1 by using semiquantitative equilibrium and off-rate assay
[10] = biological target: T3, Muscarinic acetylcholine receptor M4 (Homo sapiens); assay: Logarithm of affinity (log 1/M) at the muscarinic acetylcholine receptor M4 by using semiquantitative equilibrium and off-rate assay
[11] = biological target: T2, Muscarinic acetylcholine receptor M2 (Homo sapiens); assay: Logarithm of affinity (log 1/M) at the muscarinic acetylcholine receptor M2 by using semiquantitative equilibrium and off-rate assay
[12] = biological target: T2, Muscarinic acetylcholine receptor M2 (Homo sapiens); assay: Subtype selectivity and the cooperativity with N-methyl Scopolamine (NMS) at Muscarinic acetylcholine receptor M2; activity range is 1.2-3.
[13] = biological target: T3, Muscarinic acetylcholine receptor M4 (Homo sapiens); assay: Subtype selectivity and the cooperativity with N-methyl Scopolamine (NMS) at Muscarinic acetylcholine receptor M4; Activity range is 0.2-0.8
[14] = biological target: T2, Muscarinic acetylcholine receptor M2 (Homo sapiens); assay: Subtype selectivity and the cooperativity with N-methyl Scopolamine (NMS) at muscarinic M2 receptor; Activity range is 0.81-1.19
[15] = biological target: Muscarinic acetylcholine receptor M3 (Homo sapiens) (UniProt P20309); assay: Subtype selectivity and the cooperativity with N-methyl Scopolamine (NMS) at muscarinic acetylcholine receptor M3; Activity range is 0.2-0.8
[16] = biological target: T1, Muscarinic acetylcholine receptor M1 (Homo sapiens); assay: Subtype selectivity and the cooperativity with N-methyl Scopolamine (NMS) at Muscarinic acetylcholine receptor M1
[17] = biological target: T2, Muscarinic acetylcholine receptor M2 (Homo sapiens); assay: Subtype selectivity and the cooperativity with N-methyl Scopolamine (NMS) at Muscarinic acetylcholine receptor M2; Activity range is 0.81-1.19
[18] = biological target: T3, Muscarinic acetylcholine receptor M4 (Homo sapiens); assay: Subtype selectivity and the cooperativity with N-methyl Scopolamine (NMS) at Muscarinic acetylcholine receptor M4; Activity range is 0.81-1.19
[19] = biological target: T1, Muscarinic acetylcholine receptor M1 (Homo sapiens); assay: Subtype selectivity and the cooperativity with N-methyl Scopolamine (NMS) at Muscarinic acetylcholine receptor M1; Activity range is 0.2-0.8
[20] = biological target: T2, Muscarinic acetylcholine receptor M2 (Homo sapiens); assay: Subtype selectivity and the cooperativity with N-methyl Scopolamine (NMS) at Muscarinic acetylcholine receptor M2,activity range is 1.2-3.
[21] = biological target: Muscarinic acetylcholine receptor M3 (Homo sapiens) (UniProt P20309); assay: Subtype selectivity and the cooperativity with N-methyl Scopolamine (NMS) at Muscarinic acetylcholine receptor M3; activity ranges is 0.2-0.8.
[22] = biological target: T3, Muscarinic acetylcholine receptor M4 (Homo sapiens); assay: Subtype selectivity and the cooperativity with N-methyl Scopolamine (NMS) at Muscarinic acetylcholine receptor M4; activity range is 0.2-0.8.
[23] = biological target: T1, Muscarinic acetylcholine receptor M1 (Homo sapiens); assay: Subtype selectivity and the cooperativity with N-methyl Scopolamine (NMS) at Muscarinic acetylcholine receptor M1,activity range is 0.2-0.8.
[24] = biological target: T2, Muscarinic acetylcholine receptor M2 (Homo sapiens); assay: Subtype selectivity and the cooperativity with N-methyl Scopolamine (NMS) at Muscarinic acetylcholine receptor M2; Activity range is 1.2-3
[25] = biological target: T3, Muscarinic acetylcholine receptor M4 (Homo sapiens); assay: Subtype selectivity and the cooperativity with N-methyl Scopolamine (NMS) at Muscarinic acetylcholine receptor M4; Activity range is 1.2-3
[26] = biological target: T3, Muscarinic acetylcholine receptor M4 (Homo sapiens); assay: Subtype selectivity and the cooperativity with N-methyl Scopolamine (NMS) at Muscarinic acetylcholine receptor M4; Activity range is 081-1.19
[27] = biological target: Muscarinic acetylcholine receptor M3 (Homo sapiens) (UniProt P20309); assay: Subtype selectivity and the cooperativity with N-methyl Scopolamine (NMS) at Muscarinic acetylcholine receptor M3; activity range is 0.81-1.19.
[28] = biological target: T3, Muscarinic acetylcholine receptor M4 (Homo sapiens); assay: Subtype selectivity and the cooperativity with N-methyl Scopolamine (NMS) at Muscarinic acetylcholine receptor M4
[29] = biological target: T2, Muscarinic acetylcholine receptor M2 (Homo sapiens); assay: Subtype selectivity and the cooperativity with N-methyl Scopolamine (NMS) at Muscarinic acetylcholine receptor M2
[30] = biological target: T1, Muscarinic acetylcholine receptor M1 (Homo sapiens); assay: Subtype selectivity and the cooperativity with N-methyl Scopolamine (NMS) at Muscarinic acetylcholine receptor M1; activity value ranges from 0.81-1.19.
[31] = biological target: T1, Muscarinic acetylcholine receptor M1 (Homo sapiens); assay: Subtype selectivity and the cooperativity with N-methyl Scopolamine (NMS) at Muscarinic acetylcholine receptor M1; Activity range is 1.2-3
[32] = biological target: Muscarinic acetylcholine receptor M3 (Homo sapiens) (UniProt P20309); assay: Subtype selectivity and the cooperativity with N-methyl Scopolamine (NMS) at Muscarinic acetylcholine receptor M3; Activity range is 1.2-3
[33] = biological target: T1, Muscarinic acetylcholine receptor M1 (Homo sapiens); assay: Subtype selectivity and the cooperativity with N-methyl Scopolamine (NMS) at Muscarinic acetylcholine receptor M1 Activity range is 0.2-0.8

Chain of Muscarinic acetylcholine receptor M3 (Homo sapiens) (P20309 whole entry, looked up): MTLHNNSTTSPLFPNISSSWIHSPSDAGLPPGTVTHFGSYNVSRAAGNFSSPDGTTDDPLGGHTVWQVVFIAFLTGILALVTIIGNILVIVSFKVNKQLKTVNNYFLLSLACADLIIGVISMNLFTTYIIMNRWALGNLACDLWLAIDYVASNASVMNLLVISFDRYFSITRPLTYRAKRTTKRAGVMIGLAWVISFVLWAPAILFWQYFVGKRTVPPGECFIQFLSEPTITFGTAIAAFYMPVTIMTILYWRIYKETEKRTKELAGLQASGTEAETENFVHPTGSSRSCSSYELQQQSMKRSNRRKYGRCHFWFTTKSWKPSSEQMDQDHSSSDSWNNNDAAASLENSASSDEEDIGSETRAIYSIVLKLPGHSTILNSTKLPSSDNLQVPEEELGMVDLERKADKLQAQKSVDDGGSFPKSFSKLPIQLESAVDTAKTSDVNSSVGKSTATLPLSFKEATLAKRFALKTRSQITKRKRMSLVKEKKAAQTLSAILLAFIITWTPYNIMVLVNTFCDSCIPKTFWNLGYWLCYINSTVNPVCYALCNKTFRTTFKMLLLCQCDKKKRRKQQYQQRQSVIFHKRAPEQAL

| Compound | Cooperativity [1] | Log 1/M [2] | Log 1/M [4] | Log 1/M [6] | Log 1/M [7] | Log 1/M [8] | Log 1/M [9] | Log 1/M [10] | Log 1/M [11] | Cooperativity [15] | Cooperativity [19] | Cooperativity [24] | other results |
| --- | --- | --- | --- | --- | --- | --- | --- | --- | --- | --- | --- | --- | --- |
| O=C1CCc2cc3c(c4c5cc(O)ccc5n1c24)CNCC3 | 1.19 | 5.13 | 5.81 | 5.12 | 5.9 | 6.07 | 6.04 | 5.56 | 5.66 | – | – | – | Cooperativity [3]: 1.19; Cooperativity [5]: 3; Cooperativity [12]: 3 |
| COC(=O)c1ccc2c(c1)c1c3c(cc4c1n2C(=O)CC4)CNCC3 | – | 5.64 | 6.43 | 5.09 | 6 | 5.62 | 6.32 | 5.55 | 6.44 | 0.8 | – | – | Cooperativity [13]: 0.8; Cooperativity [14]: 1.19; Cooperativity [16]: < 0.2 |
| O=C1CCc2cc3c(c4c5ccc(O)cc5n1c24)CNCC3 | – | 5.6 | 5.64 | 5.23 | 5.65 | 6.13 | 6.59 | 5.52 | 5.6 | 0.8 | 0.8 | – | Cooperativity [17]: 1.19; Cooperativity [18]: 1.19 |
| O=C1CCc2cc3c(c4c5cc6c(cc5n1c24)OCO6)CCNC3 | – | 5.61 | 6.31 | 5.06 | 5.73 | 5.99 | 6.06 | 5.29 | 6.18 | – | – | – | Cooperativity [20]: 3; Cooperativity [21]: 0.8; Cooperativity [22]: 0.8; Cooperativity [23]: 0.8 |
| COc1cc2c(c(OC)c1OC)c1c3c(cc4c1n2C(=O)CC4)CNCC3 | – | 5.63 | 6.67 | 5.33 | 6.21 | 6.52 | 6.74 | 5.97 | 6.69 | 0.8 | 0.8 | – | Cooperativity [17]: 1.19; Cooperativity [5]: 3 |
| COc1cc2c3c4c(cc5c3n(c2cc1OC)C(=O)CC5)CNCC4 | 1.19 | 5.2 | 6.47 | 5.15 | 6.05 | 5.81 | 6.05 | 4.8 | 6.15 | – | 0.8 | 3 | Cooperativity [25]: 3 |
| COc1ccc2c(c1)c1c3c(cc4c1n2C(=O)CC4)CCNC3 | – | 5.21 | 6.05 | 4.76 | 5.74 | 5.91 | 6.1 | 5.71 | 5.87 | 0.8 | 0.8 | 3 | Cooperativity [26]: 1.19 |
| COc1cc2c3c4c(c(COC(C)=O)c5c3n(c2cc1OC)C(=O)CC5)CNCC4 | – | 5.69 | 7.21 | 5.85 | 6.55 | 6.16 | 6.09 | 5.91 | 6.63 | – | – | – | Cooperativity [27]: 1.19; Cooperativity [28]: > 3; Cooperativity [29]: > 3; Cooperativity [30]: 1.19 |
| COc1cc2c3c4c(cc5c3n(c2cc1OC)C(=O)CC5)CCNC4 | – | 5.19 | 6.97 | 5.53 | 6.57 | 6.44 | 6.19 | 5.9 | 6.28 | – | – | – | Cooperativity [28]: > 3; Cooperativity [29]: > 3; Cooperativity [31]: 3; Cooperativity [32]: 3 |
| COc1cccc2c1c1c3c(cc4c1n2C(=O)CC4)CNCC3 | 1.19 | 5.58 | 6.7 | 5.52 | 6.26 | 5.95 | 6.5 | 6.25 | 6.43 | – | – | 3 | Cooperativity [33]: 0.8; Cooperativity [18]: 1.19 |
